Values after ≈ are worked out from the molar mass of the structure shown. Values belong to the compound of their own block, whether it stands above or below them.
Tests used:
Type in all cases: functional
[1] = test system: Escherichia coli; experiment: Antibacterial activity against clinical isolate Escherichia coli assessed as prevention of visible growth at 25 degC after 24 hrs by broth dilution assay
[2] = test system: Pseudomonas aeruginosa; experiment: Antibacterial activity against clinical isolate Pseudomonas aeruginosa assessed as prevention of visible growth at 25 degC after 24 hrs by broth dilution assay
[3] = test system: Staphylococcus aureus; experiment: Antibacterial activity against clinical isolate Staphylococcus aureus assessed as prevention of visible growth at 25 degC after 24 hrs by broth dilution assay
[4] = test system: Candida albicans; experiment: Antifungal activity against clinical isolate Candida albicans assessed as prevention of visible growth at 25 degC after 24 hrs by broth dilution assay
[5] = test system: Trichophyton mentagrophytes; experiment: Antifungal activity against clinical isolate Trichophyton mentagrophytes assessed as prevention of visible growth at 30 degC after 48 hrs by broth dilution assay

- MIC [1]: > 400 µM
- MIC [2]: > 400 µM
- MIC [3]: > 400 µM
- MIC [4]: > 400 µM
- MIC [5]: > 400 µM
Structure (SMILES): CCC(=O)c1nnc2c(C(N)=O)cnn2c1CC

- MIC [1]: > 400 µM
- MIC [2]: > 400 µM
- MIC [3]: > 400 µM
- MIC [4]: > 400 µM
- MIC [5]: > 400 µM
Structure (SMILES): CCCC(=O)c1nnc2nccn2c1CCC

- MIC [1]: > 400 µM
- MIC [2]: > 400 µM
- MIC [3]: > 400 µM
- MIC [4]: > 400 µM
- MIC [5]: > 400 µM
Structure (SMILES): CCCC(=O)c1nnc2c(C(N)=O)ncn2c1CCC

- MIC [1]: > 400 µM
- MIC [2]: > 400 µM
- MIC [3]: > 400 µM
- MIC [4]: > 400 µM
- MIC [5]: > 400 µM
Structure (SMILES): CCC(=O)c1nnc2c(C(N)=O)ncn2c1CC

- MIC [1]: > 400 µM
- MIC [2]: > 400 µM
- MIC [3]: > 400 µM
- MIC [4]: > 400 µM
- MIC [5]: > 400 µM
Structure (SMILES): CCOC(=O)c1nnc2nccn2c1N

- MIC [1]: > 400 µM
- MIC [2]: > 400 µM
- MIC [3]: > 400 µM
- MIC [4]: > 400 µM
- MIC [5]: > 400 µM
Structure (SMILES): CCC(=O)c1nnc2ccnn2c1CC

- MIC [1]: > 400 µM
- MIC [2]: > 400 µM
- MIC [3]: > 400 µM
- MIC [4]: > 400 µM
- MIC [5]: > 400 µM
Structure (SMILES): Cc1nnc2nccn2c1C

- MIC [1]: > 400 µM
- MIC [5]: 160 µM (≈ 45.3 µg/mL)
Structure (SMILES): CCC(=O)c1nnc2c(Br)cnn2c1CC

- MIC [1]: > 400 µM
- MIC [2]: > 400 µM
- MIC [3]: > 400 µM
- MIC [4]: > 400 µM
- MIC [5]: > 400 µM
Structure (SMILES): CCC(=O)c1nnc2nccn2c1CC

- MIC [1]: > 400 µM
- MIC [2]: > 400 µM
- MIC [3]: > 400 µM
- MIC [4]: > 400 µM
- MIC [5]: > 400 µM
Structure (SMILES): CCC(=O)c1nnc2cc(-c3ccc(OC)cc3)nn2c1CC

- MIC [1]: > 400 µM
- MIC [2]: > 400 µM
- MIC [3]: > 400 µM
- MIC [4]: > 400 µM
- MIC [5]: > 400 µM
Structure (SMILES): CCCC(=O)c1nnc2ncnn2c1CCC

Second part, the compound before the results:

Structure (SMILES): Cc1cnnc2c(Br)cnn12
- MIC [1]: > 400 µM
- MIC [2]: > 400 µM
- MIC [3]: > 400 µM
- MIC [4]: > 400 µM
- MIC [5]: > 400 µM

Structure (SMILES): CCCC(=O)c1nnc2c(C(N)=O)cnn2c1CCC
- MIC [1]: > 400 µM
- MIC [2]: > 400 µM
- MIC [3]: > 400 µM
- MIC [4]: > 400 µM
- MIC [5]: > 400 µM

Structure (SMILES): CCCC(=O)c1nnc2c(C(N)=O)nnn2c1CCC
- MIC [1]: > 400 µM
- MIC [3]: 400 µM (≈ 111 µg/mL)

Structure (SMILES): CCOC(=O)c1nnc2ccnn2c1N
- MIC [1]: > 400 µM
- MIC [2]: 160 µM (≈ 33.2 µg/mL)

Structure (SMILES): N#Cc1nnc2ccnn2c1N
- MIC [1]: > 400 µM
- MIC [2]: > 400 µM
- MIC [3]: > 400 µM
- MIC [4]: > 400 µM
- MIC [5]: > 400 µM

Structure (SMILES): CCCc1cnnc2ccnn12
- MIC [1]: > 400 µM
- MIC [2]: > 400 µM
- MIC [3]: > 400 µM
- MIC [4]: > 400 µM
- MIC [5]: > 400 µM

Structure (SMILES): CC(=O)c1nnc2c(C(N)=O)ncn2c1C
- MIC [1]: > 400 µM
- MIC [2]: > 400 µM
- MIC [3]: > 400 µM
- MIC [4]: > 400 µM
- MIC [5]: > 400 µM

Structure (SMILES): CCCC(=O)c1nnc2c(C(=O)OCC)cnn2c1CCC
- MIC [1]: > 400 µM
- MIC [4]: 400 µM (≈ 122 µg/mL)

Structure (SMILES): CCCC(=O)c1nnc2nc(SCc3ccccc3)nn2c1CCC
- MIC [1]: > 400 µM
- MIC [3]: 400 µM (≈ 142 µg/mL)

Structure (SMILES): CCCc1cnnc2c(Br)cnn12
- MIC [1]: > 400 µM
- MIC [2]: > 400 µM
- MIC [3]: > 400 µM
- MIC [4]: > 400 µM
- MIC [5]: > 400 µM

Structure (SMILES): CCCC(=O)c1nnc2nc(S(=O)(=O)Cc3ccccc3)nn2c1CCC
- MIC [1]: > 400 µM
- MIC [2]: > 400 µM
- MIC [3]: > 400 µM
- MIC [4]: > 400 µM
- MIC [5]: > 400 µM

Structure (SMILES): CCCc1c(C(=O)OCC)nnc2ccnn12
- MIC [1]: > 400 µM
- MIC [2]: > 400 µM
- MIC [3]: > 400 µM
- MIC [4]: > 400 µM
- MIC [5]: > 400 µM

Structure (SMILES): CCCC(=O)c1nnc2c(-c3ccc(Cl)cc3)cnn2c1CCC
- MIC [1]: > 400 µM
- MIC [2]: 400 µM (≈ 137 µg/mL)

Structure (SMILES): CCCC(=O)c1nnc2nc(NC)nn2c1CCC
- MIC [1]: > 400 µM
- MIC [2]: > 400 µM
- MIC [3]: > 400 µM
- MIC [4]: > 400 µM
- MIC [5]: > 400 µM

Structure (SMILES): Cc1nnc2c(Br)cnn2c1C
- MIC [1]: > 400 µM
- MIC [2]: > 400 µM
- MIC [3]: > 400 µM
- MIC [4]: > 400 µM
- MIC [5]: > 400 µM

Structure (SMILES): CC(=O)c1nnc2ccnn2c1C
- MIC [1]: > 400 µM
- MIC [2]: > 400 µM
- MIC [3]: > 400 µM
- MIC [4]: > 400 µM
- MIC [5]: > 400 µM

Structure (SMILES): Cc1cnnc2ccnn12
- MIC [1]: > 400 µM
- MIC [2]: > 400 µM
- MIC [3]: > 400 µM
- MIC [4]: > 400 µM
- MIC [5]: > 400 µM

Structure (SMILES): Cc1nnc2ccnn2c1C
- MIC [1]: > 400 µM
- MIC [2]: > 400 µM
- MIC [3]: > 400 µM
- MIC [4]: > 400 µM
- MIC [5]: > 400 µM

Source: ChEMBL document CHEMBL3272306, “Synthesis and antimicrobial activity of some novel heterocycles. Azolo-as-triazines” (1976)
